Measurements reported in patent publication EP0623024B1, “PHARMACEUTICAL BACTERIOCIN COMPOSITIONS AND THEIR USE FOR TREATING GASTROINTESTINAL DISORDERS” (APPLIED MICROBIOLOGY, INC., priority 1992, dated 1993).
“And” between values parts separate entries of the source, which are not always exact repeats. Equal entries are not always repeated. Marks after values point to notes of the source that are not given here. Ends that are not written are not given here.

How the values were obtained:
[1] = test system: Campylobacter jejuni ATCC29428; assay: germicidal suspension assay; settings: nisin 0 or 100 µg/ml, 37°C
[2] = test system: Helicobacter pylori; assay: germicidal suspension assay; settings: nisin 0 or 100 µg/ml, 37°C
[3] = test system: E. coli strain ATCC8739; assay: nisin-citrate agar assay (growth inhibition on nutrient agar); type: cell-based
From the text: However, nisin in the presence of citrate is active against gram negative bacteria. […] This nisin-citrate agar assay has much more general applicability. The assay provides a method for screening potential agents other than citrate in combination with nisin for their potential properties as enhancers of nisin's inherent bactericidal activity. Examples of other organic acids in combination with nisin would include acetate, propionate, lactate, succinate, fumarate, malonate, adipate, sorbate, phosphate and ascorbate.
The nisin-citrate agar assay is performed as follows. E. coli is resuspended to an optical density of 1.0 at A600. A 100 µl sample of the bacterial suspension is spread uniformly on Trypticase Soy nutrient agar (TSA) supplemented with various concentrations of citrate (eg. 0.1%, 0.3%, 1.0%, 3.0%) and incubated for 1 hour at 37°C. A nisin stock solution and serial dilutions thereof in 0.1% bovine serum albumin (BSA), are prepared and 5 µl are taken from each and deposited onto the growing bacterial lawn. The TSA plates are then incubated for 24 hours at 37°C. After 24 hours at 37°C, E. coli grown on TSA supplemented with citrate form a confluent lawn. […] The effectiveness of nisin against the gram negative bacteria can be assessed from determining the minimum amount of nisin required to produce a clear zone of growth inhibition. As the concentration of citrate in the nutrient agar is increased, less nisin is required to inhibit the growth of E. coli, as is illustrated by the data shown in Table 6.

[4] = test system: Helicobacter pylori; assay: germicidal suspension assay; type: cell-based; settings: 37°C
[5] = test system: Campylobacter jejuni ATCC29428; assay: germicidal suspension assay; type: cell-based; settings: for % survival at 5 min: pH 5.0, nisin 100 µg/ml, 37°C
[6] = test system: Escherichia coli; assay: germicidal suspension assay of chelator-enhanced nisin in acid vehicles; type: cell-based; settings: for % survival at 1 min: 37°C
Protocol: The rapid activities of various chelator-enhanced nisin formulations were evaluated in acid vehicles in a germicidal suspension assay.
E. coli cells from an overnight Trypticase soy nutrient agar (TSA) were resuspended to a density measured as an absorbance of 1.0 at 600 nm in sterile ddH2O. The reaction of the cells with each of the bactericidal test formulations analyzed was started by addition of 30 µl of cells to 970 µl of test formulation. The reaction mixture was incubated at 37°C for at least 1 minute and then centrifuged in a microfuge for 1 minute. The cell pellet was washed by resuspension in 1 ml of neutralization buffer. (The neutralization buffer: 50 mM Tris-HCl, pH 7.0, 5 mM MgSO4, 20 mM CaC12, 0.1 M NaCl and 0.1% gelatin was prepared by first making Tris buffer and adjusting the pH. The salts and gelatin were then added and the solution stirred with heat until the solution was clear. The solution was then autoclaved for 20 min. The neutralization buffer was used without dilution.) The cells were centrifuged in a microfuge for 1 minute and resuspended in 1 ml of neutralization buffer. The viable count was determined by spreading 100 µl of bacterial suspension and serial dilutions thereof in neutralization buffer on nutrient agar and scoring surviving colonies after 24 h at 37°C. Percent survival relative to untreated controls was calculated from the scored values.
In Table 1 and subsequent Tables 2, 4 and 8-13 values preceded by "<" represent the percent survival figures, based on the initial concentration of viable bacteria (expressed as colony forming units (cfu) /ml) in the assayed bacterial suspension and the aliquot volume of said suspension taken for assay, corresponding to the detection of no surviving colonies.

`O=C(O)CC(O)(CC(=O)O)C(=O)O` [Citrate] was tested, and the “% survival at 5 min” value ([1]; 0.3 % w/v citrate pH 5.0) was <6.4x10^-3%, the “% survival at 5 min” value ([1]; 1.0 % w/v citrate pH 5.0) was <6.4x10^-3% and the “% survival at 5 min” value ([2]; strain ATCC 43504, 0.1% citrate adjusted to pH 5.0) was 68.5^d %. The “% survival at 5 min” value ([2]; strain ATCC 43504, 0.3% citrate adjusted to pH 5.0) was 100^e %, the “% survival at 5 min” value ([2]; strain ATCC 43579, 0.1% citrate adjusted to pH 2.5) was <5.0x10^-4% and the “% survival at 5 min” value ([2]; strain ATCC 43579, 0.1% citrate adjusted to pH 3.0) was 1.1x10^-3%. For the same molecule, the “% survival at 5 min” value ([2]; strain ATCC 43579, 0.1% citrate adjusted to pH 5.0) was 97.2^b %.

In the case of “nisin (ITSISLCTPGCKTGALMGCNMKTATCHCSIHVSK; also: lantibiotic nisin A: thioether rings and dehydrated residues not placed; UniProt P13068 24-57, looked up) [lanthionine-containing bacteriocin]”, the “Nisin NIC (nominal inhibitory concentration of nisin minimally required to prevent growth)” value ([3]; Trypticase Soy Agar supplemented with 0.1% citrate) was 370 µg/mL, the “Nisin NIC (nominal inhibitory concentration of nisin minimally required to prevent growth)” value ([3]; Trypticase Soy Agar supplemented with 0.3% citrate) was 123 µg/mL and the “Nisin NIC (nominal inhibitory concentration of nisin minimally required to prevent growth)” value ([3]; Trypticase Soy Agar supplemented with 1.0% citrate) was 13.7 µg/mL. For the same molecule, the “Nisin NIC (nominal inhibitory concentration of nisin minimally required to prevent growth)” value ([3]; Trypticase Soy Agar supplemented with 3.0% citrate) was 0.06 µg/mL, the “Nisin NIC (nominal inhibitory concentration of nisin minimally required to prevent growth)” value ([3]; Trypticase Soy Agar with 0% citrate) was 3,333 µg/ml and the “% survival at 5 min” value ([4]; strain ATCC 43504, EDTA 0, nisin 100 µg/ml, pH 5.0, incubated in presence of 20 mM acetate) was 7.03^e %. For the same molecule, the “% survival at 5 min” value ([4]; strain ATCC 43504, citrate 0, nisin 100 µg/ml, 20 mM acetate, pH 5.0, two experiments (initial count 2.7 x 10^5 and 3.7 x 10^4 cfu/ml)) was 0.69^d % and 4.86^e %, the “% survival at 5 min” value ([4]; strain ATCC 43504, pH 5.0, citrate 0, nisin 100 µg/ml) was 0.043% and the “% survival at 5 min” value ([4]; strain ATCC 43504, pH 7.0, citrate 0, nisin 100 µg/ml) was 2.08%. The “% survival at 5 min” value ([4]; strain ATCC 43526, pH 7.0, EDTA 0, nisin 100 µg/ml) was 5.88%, the “% survival at 5 min” value ([4]; strain ATCC 43579, citrate 0, nisin 100 µg/ml, 20 mM acetate, pH 5.0, average of 5 experiments) was 0.30^c % and the “% survival at 5 min” value ([4]; strain ATCC 43579, citrate 0, nisin 100 µg/ml, 20 mM acetate, pH 5.0, single experiment) was 8.6x10^-3 ^e %. The “% survival at 5 min” value ([4]; strain ATCC 43579, nisin 10 µg/ml, without or with 0.1% citrate pH 5.0) was 1.41%, the “% survival at 5 min” value ([4]; strain ATCC 43579, nisin 30 µg/ml, without or with 0.1% citrate pH 5.0) was 0.39% and the “% survival at 5 min” value ([4]; strain ATCC 43579, nisin 100 µg/ml, without or with 0.1% citrate pH 5.0) was 0.085%. For the same molecule, the “% survival at 5 min” value ([4]; strain ATCC 43579, nisin 300 µg/ml, without or with 0.1% citrate pH 5.0) was 0.0056%, the “% survival at 5 min” value ([4]; strain ATCC 43579, pH 5.0, EDTA 0, nisin 100 µg/ml) was 4.7% and the “% survival at 5 min” value ([4]; strain ATCC 43579, pH 5.0, citrate 0, nisin 100 µg/ml) was 9.62%. The “% survival at 5 min” value ([4]; strain ATCC 43579, pH 7.0, citrate 0, nisin 100 µg/ml) was 0.78%, the “% survival at 5 min” value ([5]; EDTA 0) was <5.0x10^-4% and the “% survival at 5 min” value ([5]; citrate 0) was <6.4x10^-3%. The “effectiveness towards C. jejuni” value ([5]; nisin by itself) was “extremely effective”, the “% survival at 1 min” value ([6]; 0.1 % w/v acetate pH 3.5, nisin 100 µg/ml and/or EDTA 1.0 mM, or acetate alone) was 9.6% and the “% survival at 1 min” value ([6]; 0.1 % w/v lactate pH 3.5, nisin 100 µg/ml and/or EDTA 1.0 mM, or lactate alone) was 4.4%. For the same molecule, the “% survival at 1 min” value ([6]; 0.1 % w/v succinate pH 3.5, nisin 100 µg/ml and/or EDTA 1.0 mM, or succinate alone) was 18.3%, the “% survival at 1 min” value ([6]; 0.3 % w/v acetate pH 3.5, nisin 100 µg/ml and/or EDTA 1.0 mM, or acetate alone) was 70% and the “% survival at 1 min” value ([6]; 0.3 % w/v lactate pH 3.5, nisin 100 µg/ml and/or EDTA 1.0 mM, or lactate alone) was 0.24%. For the same molecule, the “% survival at 1 min” value ([6]; 0.3 % w/v succinate pH 3.5, nisin 100 µg/ml and/or EDTA 1.0 mM, or succinate alone) was 66.6%, the “% survival at 1 min” value ([6]; 1.0 % w/v acetate pH 3.5, nisin 100 µg/ml and/or EDTA 1.0 mM, or acetate alone) was 100% and the “% survival at 1 min” value ([6]; 1.0 % w/v lactate pH 3.5, nisin 100 µg/ml and/or EDTA 1.0 mM, or lactate alone) was 17.8%. For the same molecule, the “% survival at 1 min” value ([6]; 1.0 % w/v succinate pH 3.5, nisin 100 µg/ml and/or EDTA 1.0 mM, or succinate alone) was 83.4%, the “% survival at 1 min” value ([6]; 3.0 % w/v acetate pH 3.5, nisin 100 µg/ml and/or EDTA 1.0 mM, or acetate alone) was 100% and the “% survival at 1 min” value ([6]; 3.0 % w/v lactate pH 3.5, nisin 100 µg/ml and/or EDTA 1.0 mM, or lactate alone) was 26.7%. The “% survival at 1 min” value ([6]; 3.0 % w/v succinate pH 3.5, nisin 100 µg/ml and/or EDTA 1.0 mM, or succinate alone) was 28.4%, the “survival of E. coli on exposure to the agent by itself” value ([6]; each agent by itself) was “unaffected” and the “% survival at 1 min” value ([6]; pH 2.0, 20 mM Na acetate buffer, nisin 100 µg/ml and/or EDTA 1.0 mM) was 0.28%. The “% survival at 1 min” value ([6]; pH 2.5, 20 mM Na acetate buffer, nisin 100 µg/ml and/or EDTA 1.0 mM) was 3.37%, the “% survival at 1 min” value ([6]; pH 3.0, 20 mM Na acetate buffer, nisin 100 µg/ml and/or EDTA 1.0 mM) was 4.43% and the “% survival at 1 min” value ([6]; pH 3.5, 20 mM Na acetate buffer, nisin 100 µg/ml and/or EDTA 1.0 mM) was 100%. For the same molecule, the “% survival at 1 min” value ([6]; pH 4.0, 20 mM Na acetate buffer, nisin 100 µg/ml and/or EDTA 1.0 mM) was 100%.
